From patent publication US20050288264A2, “Dosage Regimen and Pharmaceutical Composition for Emergency Contraception” (priority 2001, published 2005)
Like-named read-outs stand apart in the source and are kept apart here.

Type: in vivo, women
Method: The efficacy of the regimen according to this invention was compared with the known regimen administering 0.75-0.75 mg of levonorgestrel 12 hours apart in the following trials.
In a double-blind, randomized, multicentre, multinational trial 1,356 women received 0.75-0.75 mg of levonorgestrel at 12-hour interval in the traditional way, while 1,356 received in a single dose 1.5 ± 0.2 mg of levonorgestrel within 72 hours of the unprotected coitus.
The incidence of vomiting was 1.4% in both groups. As the new regimen also has the advantageous properties resulting from the lack of the estrogen component, the incidence of nausea, feeling of sickness, vomiting was apparently low.
The incidence of menstrual disorders was not increased either by the single administration of 1.5 mg dose of levonorgestrel compared to the administration of two 0.75 mg doses. The incidence of menstrual disorders was 30.9% in both groups.

C#C[C@]1(O)CC[C@H]2[C@@H]3CCC4=CC(=O)CC[C@@H]4[C@H]3CC[C@@]21CC [levonorgestrel]
Prevented fraction (percent of conception which otherwise might happen prevented by the treatment) (0.75-0.75 mg at 12-hour interval (traditional way)): 77.3%
conception rate (0.75-0.75 mg at 12-hour interval (traditional way), within 72 hours of unprotected coitus, 1,356 women): 1.77%
incidence of other side-effects (diarrhoea, fatigue, dizziness, headache, breast tenderness, lower abdominal pain) (in vivo): not differing significantly
Prevented fraction (percent of conception which otherwise might happen prevented by the treatment) (single dose 1.5 ± 0.2 mg): 81.9%
conception rate (single dose 1.5 ± 0.2 mg within 72 hours of unprotected coitus, 1,356 women): 1.47%
